Measurements taken from the NIST ThermoML archive (doi:10.1016/j.fluid.2008.08.001).
± gives the expanded uncertainty stated by the source.

Assays:
[1] = for vapor or sublimation pressure: Liquid
[2] = refractive index (Na D-line) (dimensionless); details: 298.1 K; 101.33 kPa; Liquid; Standard Abbe refractometry

Row | Normal melting temperature ([1]; Crystal, visual observation) [°C] | refractive index [2] | vapor or sublimation pressure ([1]; 468.96 K) [kPa] | vapor or sublimation pressure ([1]; 473.96 K) [kPa] | vapor or sublimation pressure ([1]; 478.65 K) [kPa] | vapor or sublimation pressure ([1]; 485.91 K) [kPa] | vapor or sublimation pressure ([1]; 488.5 K) [kPa] | vapor or sublimation pressure ([1]; 490.22 K) [kPa] | vapor or sublimation pressure ([1]; 496.8 K) [kPa] | vapor or sublimation pressure ([1]; 500.18 K) [kPa] | vapor or sublimation pressure ([1]; 505.08 K) [kPa] | vapor or sublimation pressure ([1]; 510.7 K) [kPa] | vapor or sublimation pressure ([1]; 519.03 K) [kPa] | vapor or sublimation pressure ([1]; 525.3 K) [kPa] | vapor or sublimation pressure ([1]; 532.77 K) [kPa] | SMILES
1 | 52.5 ± 0.5 |  |  |  |  |  |  |  |  |  |  |  |  |  |  | O=C1C=CC(=O)O1 [maleic anhydride]
2 |  | 1.442 ± 0.0007 | 0.666 ± 0.044 | 0.818 ± 0.05 | 1.036 ± 0.059 | 1.457 ± 0.078 | 1.515 ± 0.081 | 1.762 ± 0.093 | 2.286 ± 0.12 | 2.647 ± 0.14 | 3.149 ± 0.16 | 4.078 ± 0.21 | 5.29 ± 0.27 | 7.044 ± 0.35 | 9.161 ± 0.46 | CCCCOC(=O)CCCCCCCCC(=O)OCCCC [dibutyl decanedioate]
